# Data reported in patent publication US20080009418A1, “Selective Inhibitors” (Alchemia LTD., priority 2004, published 2008).
# How the values were obtained:
# Human δ-opioid (DOP) = target: T1, Human δ-opioid (DOP) (Homo sapiens, UniProt P41143); experiment: Radioligand binding, human δ-opioid (DOP) membranes, FlashPlate, [3H]-Bremazocine; details: compound at 10 μM, [3H]-Bremazocine
# T1 construct: purchased Perkin Elmer Biosignal
# In short: (§1)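 Cloned human receptor membranes were coated onto FlashPlate wells and incubated with radioligand and compound (added from a 0.5 mM DMSO daughter plate) for 1 hour at room temperature in the dark. Scintillation counting gave percent inhibition, with DMSO defining total and reference ligand defining non-specific binding.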
# Human κ-Opioid (KOP) = target: T2, Human κ-Opioid (KOP) (Homo sapiens, UniProt P41145); experiment: Radioligand binding, human κ-opioid (KOP) membranes, filtration, [3H]-Diprenorphine; details: compound at 10 μM, [3H]-Diprenorphine
# T2 construct: purchased Perkin Elmer Biosignal
# In short: (§2)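 Percent inhibition of radioligand binding measured on recombinant human membranes: NK1 with [125I]-Substance P, KOP with [3H]-Diprenorphine. Incubation 1 h at room temperature, then harvest onto 0.3% PEI-soaked filters, cold Tris-HCl pH 7.4 washes and scintillation counting; non-specific binding from reference ligand wells.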
# Human Melanocortin (MC3) = target: T3, Human Melanocortin (MC3) (Homo sapiens, UniProt P41968); experiment: Radioligand binding, human melanocortin MC3 membranes, FlashPlate, [125I]-NDP-αMSH; details: compound at 10 μM, [125I]-NDP-αMSH
# T3 construct: purchased Perkin Elmer Biosignal
# In short: as §1
# Human Melanocortin (MC4) = target: T4, Human Melanocortin (MC4) (Homo sapiens, UniProt P32245); experiment: Radioligand binding, human melanocortin MC4 membranes, FlashPlate, [125I]-NDP-αMSH; details: compound at 10 μM, [125I]-NDP-αMSH
# T4 construct: purchased Perkin Elmer Biosignal
# In short: as §1
# Human melanocortin (MC5) = target: T5, Human melanocortin (MC5) (Homo sapiens, UniProt P33032); experiment: Radioligand binding, human melanocortin MC5 membranes, FlashPlate, [125I]-NDP-αMSH; details: compound at 10 μM, [125I]-NDP-αMSH
# T5 construct: purchased Perkin Elmer Biosignal
# In short: as §1
# [1] = target: T6, Human melanin-concentrating hormone (MCH1) (Homo sapiens, UniProt Q99705); experiment: Radioligand binding, human melanin-concentrating hormone MCH1 membranes, FlashPlate, [125I]-S36057; details: compound at 10 μM
# T6 construct: purchased Perkin Elmer Biosignal
# In short: as §1
# Human μ-opioid (MOP) = target: T7, Human μ-opioid (MOP) (Homo sapiens, UniProt P35372); experiment: Radioligand binding, human μ-opioid (MOP) membranes, FlashPlate, [3H]-Naloxone; details: compound at 10 μM, [3H]-Naloxone
# T7 construct: purchased Perkin Elmer Biosignal
# In short: as §1
# Human neurokinin (NK1) = target: T8, Human neurokinin (NK1) (Homo sapiens, UniProt P25103); experiment: Radioligand binding, human neurokinin NK1 membranes, filtration, [125I]-Substance P; details: compound at 10 μM, [125I]-Substance P
# T8 construct: purchased Perkin Elmer Biosignal
# In short: as §2
# [2] = target: T9, Human neuropeptide Y (NPY-Y1) (Homo sapiens, UniProt P25929); experiment: Radioligand binding, human neuropeptide Y NPY-Y1 membranes, FlashPlate, [125I]-PYY; details: compound at 10 μM, [125I]-PYY
# T9 construct: purchased Perkin Elmer Biosignal
# T9 sequence (P25929 1-384): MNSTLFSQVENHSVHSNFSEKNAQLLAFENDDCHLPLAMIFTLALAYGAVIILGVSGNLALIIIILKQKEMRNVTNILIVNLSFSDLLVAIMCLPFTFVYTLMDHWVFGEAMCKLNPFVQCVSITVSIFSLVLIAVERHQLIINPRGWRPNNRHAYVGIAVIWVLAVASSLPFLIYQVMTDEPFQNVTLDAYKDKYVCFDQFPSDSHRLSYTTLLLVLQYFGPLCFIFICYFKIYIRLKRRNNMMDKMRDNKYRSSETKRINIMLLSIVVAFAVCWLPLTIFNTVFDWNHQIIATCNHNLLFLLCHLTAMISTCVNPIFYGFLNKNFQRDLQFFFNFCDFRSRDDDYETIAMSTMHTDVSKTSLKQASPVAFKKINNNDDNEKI
# In short: as §1
# Human opioid (ORL1) = target: T10, Human opioid (ORL1) (Homo sapiens, UniProt P41146); experiment: Radioligand binding, human opioid ORL1 membranes, FlashPlate, [125I]-Nociceptin; details: compound at 10 μM, [125I]-Nociceptin
# T10 construct: purchased Perkin Elmer Biosignal
# In short: as §1
# Mouse urotensin (mUR2) = target: T11, Mouse urotensin (mUR2) (Mus musculus, UniProt Q8VIH9); experiment: Radioligand binding, mouse urotensin mUR2 membranes, FlashPlate, [125I]-Urotensin II; details: compound at 10 μM, [125I]-Urotensin II
# T11 construct: purchased Perkin Elmer Biosignal
# T11 sequence (Q8VIH9 1-385): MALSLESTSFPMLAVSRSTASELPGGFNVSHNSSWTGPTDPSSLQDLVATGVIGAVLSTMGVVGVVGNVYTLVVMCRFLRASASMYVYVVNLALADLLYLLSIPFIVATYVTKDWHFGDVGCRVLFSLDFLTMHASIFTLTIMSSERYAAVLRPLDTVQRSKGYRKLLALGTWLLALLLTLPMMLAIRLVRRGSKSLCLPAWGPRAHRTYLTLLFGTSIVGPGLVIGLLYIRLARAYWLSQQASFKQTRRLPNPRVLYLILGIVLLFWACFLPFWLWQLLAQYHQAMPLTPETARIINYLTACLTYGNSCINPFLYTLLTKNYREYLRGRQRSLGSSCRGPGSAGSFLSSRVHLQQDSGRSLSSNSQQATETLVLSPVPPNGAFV
# In short: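 Cloned mouse urotensin (mUR2) receptor membranes from Perkin Elmer Biosignal were immobilized in FlashPlate microplates using a proprietary coating. Each well got 19.5 μl buffer, then 0.5 μl of DMSO, reference ligand, or compound. Adding 5 μl of [125I]-Urotensin II, diluted to 5× final concentration in binding buffer, started binding. Plates were sealed with TopSeal-A and incubated 1 hour at room temperature in the dark. Wells were counted for 30 seconds each on a TopCount after a 60-second delay, and percentage inhibition was calculated.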
# [3] = [125I]-S36057, human MCH1 membranes
# T1 sequence (P41143 whole entry): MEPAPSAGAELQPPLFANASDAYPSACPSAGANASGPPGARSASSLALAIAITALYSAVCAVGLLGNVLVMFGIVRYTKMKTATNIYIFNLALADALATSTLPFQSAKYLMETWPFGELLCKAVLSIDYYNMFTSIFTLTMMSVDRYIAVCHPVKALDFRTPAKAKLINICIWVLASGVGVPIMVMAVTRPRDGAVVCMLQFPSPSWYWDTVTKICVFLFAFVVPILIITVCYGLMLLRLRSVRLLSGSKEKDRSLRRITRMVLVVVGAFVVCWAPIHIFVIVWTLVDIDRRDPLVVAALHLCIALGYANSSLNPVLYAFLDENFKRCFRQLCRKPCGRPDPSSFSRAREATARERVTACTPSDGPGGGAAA
# T8 sequence (P25103 whole entry): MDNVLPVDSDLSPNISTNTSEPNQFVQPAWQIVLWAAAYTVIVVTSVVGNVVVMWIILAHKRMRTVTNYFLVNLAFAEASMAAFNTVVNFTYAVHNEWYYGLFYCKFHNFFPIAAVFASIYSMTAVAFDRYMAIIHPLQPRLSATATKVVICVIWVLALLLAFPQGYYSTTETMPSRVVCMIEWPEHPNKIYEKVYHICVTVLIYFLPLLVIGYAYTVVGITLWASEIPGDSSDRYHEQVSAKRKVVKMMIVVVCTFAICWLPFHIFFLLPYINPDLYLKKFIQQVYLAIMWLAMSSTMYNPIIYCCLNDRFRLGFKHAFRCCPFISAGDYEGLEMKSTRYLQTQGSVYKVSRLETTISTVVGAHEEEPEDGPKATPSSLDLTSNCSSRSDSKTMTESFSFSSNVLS
# T3 sequence (P41968 whole entry): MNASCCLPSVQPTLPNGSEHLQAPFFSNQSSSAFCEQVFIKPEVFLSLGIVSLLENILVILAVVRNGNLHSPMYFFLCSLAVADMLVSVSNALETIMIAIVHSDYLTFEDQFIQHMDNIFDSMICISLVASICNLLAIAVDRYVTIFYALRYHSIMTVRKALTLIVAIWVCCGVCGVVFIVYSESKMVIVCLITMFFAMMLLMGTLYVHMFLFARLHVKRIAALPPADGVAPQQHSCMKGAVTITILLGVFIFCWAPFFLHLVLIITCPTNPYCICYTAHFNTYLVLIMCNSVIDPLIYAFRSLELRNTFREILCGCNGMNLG
# T10 sequence (P41146 whole entry): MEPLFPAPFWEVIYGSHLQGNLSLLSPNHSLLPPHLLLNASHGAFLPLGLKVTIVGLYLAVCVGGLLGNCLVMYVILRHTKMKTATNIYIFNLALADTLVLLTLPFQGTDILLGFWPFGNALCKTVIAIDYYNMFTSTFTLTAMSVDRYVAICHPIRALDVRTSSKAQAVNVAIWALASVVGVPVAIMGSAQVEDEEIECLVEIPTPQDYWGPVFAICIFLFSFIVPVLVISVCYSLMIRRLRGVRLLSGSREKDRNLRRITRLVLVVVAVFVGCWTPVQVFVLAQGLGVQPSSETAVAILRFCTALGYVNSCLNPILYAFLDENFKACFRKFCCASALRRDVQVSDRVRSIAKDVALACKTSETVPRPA
# T7 sequence (P35372 whole entry): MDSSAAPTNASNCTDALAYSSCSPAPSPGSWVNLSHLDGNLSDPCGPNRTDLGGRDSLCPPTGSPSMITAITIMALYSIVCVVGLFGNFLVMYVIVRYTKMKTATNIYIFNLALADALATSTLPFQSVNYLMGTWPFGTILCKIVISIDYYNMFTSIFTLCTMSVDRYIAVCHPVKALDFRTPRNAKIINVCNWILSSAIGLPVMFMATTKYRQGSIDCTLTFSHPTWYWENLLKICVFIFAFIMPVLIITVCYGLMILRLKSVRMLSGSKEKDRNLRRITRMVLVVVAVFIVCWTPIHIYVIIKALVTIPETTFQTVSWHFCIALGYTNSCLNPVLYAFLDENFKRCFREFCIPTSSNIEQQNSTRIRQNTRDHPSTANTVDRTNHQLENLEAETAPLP
# T6 sequence (Q99705 whole entry): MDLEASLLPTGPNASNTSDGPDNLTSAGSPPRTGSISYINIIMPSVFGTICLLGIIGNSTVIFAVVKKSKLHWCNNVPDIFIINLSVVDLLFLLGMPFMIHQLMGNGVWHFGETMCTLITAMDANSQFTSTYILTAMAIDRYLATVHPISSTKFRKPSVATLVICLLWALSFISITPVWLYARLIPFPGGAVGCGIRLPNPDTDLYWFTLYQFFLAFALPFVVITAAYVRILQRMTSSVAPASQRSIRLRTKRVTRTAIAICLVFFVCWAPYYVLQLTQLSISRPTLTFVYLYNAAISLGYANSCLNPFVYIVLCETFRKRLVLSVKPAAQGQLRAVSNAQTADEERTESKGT
# T4 sequence (P32245 whole entry): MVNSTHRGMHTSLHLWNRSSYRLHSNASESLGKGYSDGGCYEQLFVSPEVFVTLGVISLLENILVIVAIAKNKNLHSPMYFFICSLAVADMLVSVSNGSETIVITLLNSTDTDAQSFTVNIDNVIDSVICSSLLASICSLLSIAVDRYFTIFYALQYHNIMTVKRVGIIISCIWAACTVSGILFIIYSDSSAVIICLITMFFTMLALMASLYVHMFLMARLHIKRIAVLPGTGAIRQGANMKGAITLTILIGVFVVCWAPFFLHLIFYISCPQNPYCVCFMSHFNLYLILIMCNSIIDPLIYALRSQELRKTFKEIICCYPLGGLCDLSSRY
# T2 sequence (P41145 whole entry): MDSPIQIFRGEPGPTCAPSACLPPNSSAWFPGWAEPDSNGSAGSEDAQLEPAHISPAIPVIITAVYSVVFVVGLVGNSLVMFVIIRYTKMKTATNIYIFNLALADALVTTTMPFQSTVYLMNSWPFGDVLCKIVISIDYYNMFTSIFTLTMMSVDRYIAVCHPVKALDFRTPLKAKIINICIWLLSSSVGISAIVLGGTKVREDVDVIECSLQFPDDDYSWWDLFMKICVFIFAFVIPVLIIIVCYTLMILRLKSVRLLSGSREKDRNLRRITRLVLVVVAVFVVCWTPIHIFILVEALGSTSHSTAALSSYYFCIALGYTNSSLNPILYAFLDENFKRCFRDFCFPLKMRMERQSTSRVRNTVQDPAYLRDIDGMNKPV
# T5 sequence (P33032 whole entry): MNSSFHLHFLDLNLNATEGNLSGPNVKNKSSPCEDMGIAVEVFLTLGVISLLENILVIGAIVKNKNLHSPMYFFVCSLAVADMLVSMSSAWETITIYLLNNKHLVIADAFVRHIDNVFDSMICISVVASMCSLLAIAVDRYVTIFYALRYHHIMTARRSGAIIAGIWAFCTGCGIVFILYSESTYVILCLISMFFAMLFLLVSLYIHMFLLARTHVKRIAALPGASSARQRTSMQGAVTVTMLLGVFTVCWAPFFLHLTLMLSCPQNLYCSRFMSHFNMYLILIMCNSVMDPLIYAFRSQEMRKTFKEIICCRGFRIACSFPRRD
Structure (SMILES),A1: inhibition of radioligand binding (Human δ-opioid (DOP); human DOP membranes),A3: inhibition of radioligand binding (Human Melanocortin (MC3); human MC3 membranes),A4: inhibition of radioligand binding (Human Melanocortin (MC4); human MC4 membranes),A5: inhibition of radioligand binding (Human melanocortin (MC5); human MC5 membranes),"A6: inhibition of radioligand binding [1, 3]",A8: inhibition of radioligand binding (Human neurokinin (NK1); human NK1 membranes),A9: inhibition of radioligand binding ([2]; human NPY-Y1 membranes),A11: inhibition of radioligand binding (Mouse urotensin (mUR2); mouse mUR2 membranes),A1: inhibition of radioligand binding (Human δ-opioid (DOP); FlashPlate),A2: inhibition of radioligand binding (Human κ-Opioid (KOP); filtration),A3: inhibition of radioligand binding (Human Melanocortin (MC3); FlashPlate),A4: inhibition of radioligand binding (Human Melanocortin (MC4); FlashPlate),A5: inhibition of radioligand binding (Human melanocortin (MC5); FlashPlate),"A6: inhibition of radioligand binding ([1]; [125I]-S36057, FlashPlate)",A7: inhibition of radioligand binding (Human μ-opioid (MOP); FlashPlate),A8: inhibition of radioligand binding (Human neurokinin (NK1); filtration),A9: inhibition of radioligand binding ([2]; FlashPlate),A10: inhibition of radioligand binding (Human opioid (ORL1); FlashPlate),A11: inhibition of radioligand binding (Mouse urotensin (mUR2); FlashPlate),also measured
NCCCC(=O)NC1C(OCc2ccc3ccccc3c2)OC(COCc2ccc3ccccc3c2)C(O)C1OCc1ccc(Cl)cc1 (stereo not shown) [compound 390],− (“−” indicates less than 50% inhibition at 10 μM),+ (“+” indicates greater than 50% inhibition at 10 μM),+ (“+” indicates greater than 50% inhibition at 10 μM),+ (“+” indicates greater than 50% inhibition at 10 μM),+ (“+” indicates greater than 50% inhibition at 10 μM),+ (“+” indicates greater than 50% inhibition at 10 μM),− (“−” indicates less than 50% inhibition at 10 μM),− (“−” indicates less than 50% inhibition at 10 μM),–,–,–,–,–,–,–,–,–,–,–,"A2: inhibition of radioligand binding (Human κ-Opioid (KOP); human KOP membranes, 10 µM): − (“−” indicates less than 50% inhibition at 10 μM); A7: inhibition of radioligand binding (Human μ-opioid (MOP); human MOP membranes, 10 µM): − (“−” indicates less than 50% inhibition at 10 μM); A10: inhibition of radioligand binding (Human opioid (ORL1); human ORL1 membranes, 10 µM): + (“+” indicates greater than 50% inhibition at 10 μM)"
COCC1OC(OCCc2ccccc2)C(NC(=O)CCCN)C(OCc2ccc(Cl)cc2)C1O (stereo not shown) [compound 222],–,–,–,–,–,–,–,–,− (“−” indicates less than 50% inhibition at 10 μM),− (“−” indicates less than 50% inhibition at 10 μM),− (“−” indicates less than 50% inhibition at 10 μM),− (“−” indicates less than 50% inhibition at 10 μM),+ (“+” indicates greater than 50% inhibition at 10 μM),− (“−” indicates less than 50% inhibition at 10 μM),− (“−” indicates less than 50% inhibition at 10 μM),+ (“+” indicates greater than 50% inhibition at 10 μM),− (“−” indicates less than 50% inhibition at 10 μM),− (“−” indicates less than 50% inhibition at 10 μM),− (“−” indicates less than 50% inhibition at 10 μM),–
NCCC(=O)N[C@H]1C(OCc2ccc3ccccc3c2)O[C@H](COCc2ccccc2)[C@@H](O)[C@@H]1OCc1ccccc1 (stereo partly shown) [compound 450],− (“−” indicates less than 50% inhibition at 10 μM),− (“−” indicates less than 50% inhibition at 10 μM),− (“−” indicates less than 50% inhibition at 10 μM),− (“−” indicates less than 50% inhibition at 10 μM),− (“−” indicates less than 50% inhibition at 10 μM),+ (“+” indicates greater than 50% inhibition at 10 μM),− (“−” indicates less than 50% inhibition at 10 μM),− (“−” indicates less than 50% inhibition at 10 μM),–,–,–,–,–,–,–,–,–,–,–,A2: inhibition of radioligand binding (Human κ-Opioid (KOP); human KOP membranes): − (“−” indicates less than 50% inhibition at 10 μM); A7: inhibition of radioligand binding (Human μ-opioid (MOP); human MOP membranes): − (“−” indicates less than 50% inhibition at 10 μM); A10: inhibition of radioligand binding (Human opioid (ORL1); human ORL1 membranes): − (“−” indicates less than 50% inhibition at 10 μM)
CSC1OC(COCc2ccccc2)C(O)C(OCc2ccc(Cl)cc2)C1NC(=O)CCCNC(=N)N (stereo not shown) [compound 268],–,–,–,–,–,–,–,–,− (“−” indicates less than 50% inhibition at 10 μM),− (“−” indicates less than 50% inhibition at 10 μM),− (“−” indicates less than 50% inhibition at 10 μM),− (“−” indicates less than 50% inhibition at 10 μM),+ (“+” indicates greater than 50% inhibition at 10 μM),− (“−” indicates less than 50% inhibition at 10 μM),− (“−” indicates less than 50% inhibition at 10 μM),+ (“+” indicates greater than 50% inhibition at 10 μM),− (“−” indicates less than 50% inhibition at 10 μM),− (“−” indicates less than 50% inhibition at 10 μM),− (“−” indicates less than 50% inhibition at 10 μM),–
COCC1OC(OCc2ccc3ccccc3c2)C(NC(=O)CCN)C(OCc2ccc3ccccc3c2)C1O (stereo not shown) [compound 546],–,–,–,–,–,–,–,–,–,–,–,–,–,–,–,–,–,–,–,"A1: inhibition of radioligand binding, human δ-opioid (DOP) (Human δ-opioid (DOP)): − (“−” indicates less than 50% inhibition at 10 μM); A2: inhibition of radioligand binding, human κ-opioid (KOP) (Human κ-Opioid (KOP)): − (“−” indicates less than 50% inhibition at 10 μM); A3: inhibition of radioligand binding, human melanocortin (MC3) (Human Melanocortin (MC3)): − (“−” indicates less than 50% inhibition at 10 μM); A4: inhibition of radioligand binding, human melanocortin (MC4) (Human Melanocortin (MC4)): − (“−” indicates less than 50% inhibition at 10 μM); A5: inhibition of radioligand binding, human melanocortin (MC5) (Human melanocortin (MC5); 10 µM): + (“+” indicates greater than 50% inhibition at 10 μM); A6: inhibition of radioligand binding, human melanin-concentrating hormone (MCH1) ([1]; [125I]-S36057): − (“−” indicates less than 50% inhibition at 10 μM); A7: inhibition of radioligand binding, human μ-opioid (MOP) (Human μ-opioid (MOP)): − (“−” indicates less than 50% inhibition at 10 μM); A8: inhibition of radioligand binding, human neurokinin (NK1) (Human neurokinin (NK1); 10 µM): − (“−” indicates less than 50% inhibition at 10 μM); A9: inhibition of radioligand binding, human neuropeptide Y (NPY-Y1) [2]: − (“−” indicates less than 50% inhibition at 10 μM); A10: inhibition of radioligand binding, human opioid (ORL1) (Human opioid (ORL1)): − (“−” indicates less than 50% inhibition at 10 μM); A11: inhibition of radioligand binding, mouse urotensin (mUR2) (Mouse urotensin (mUR2)): − (“−” indicates less than 50% inhibition at 10 μM)"
